# In patent US20250145641A1, “FUSED BICYCLIC DERIVATIVE, PHARMACEUTICALLY ACCEPTABLE SALT, CRYSTAL FORM THEREOF AND PREPARATION METHOD THEREFOR” (JIANGSU HENGRUI PHARMACEUTICALS CO., LTD., priority 2021, published 2025):
# Key:
# Type in all cases: physicochemical
# [1] = Long-term/accelerated stability study; settings: for physical and chemical stability (conclusion): 25° C./60 RH and 40° C./75 RH, 6 months
# Procedure: The crystal form A of hydrochloride, the crystal form A of methanesulfonate, and the crystal form α of acetate were placed at 25° C./60% RH and 40° C./75% RH to investigate the stability, and the results are shown in Tables 10, 11, and 12 below.
# [2] = Hygroscopicity study (dynamic vapor sorption); settings: DVS, 25° C.; for Crystal form after hygroscopicity test: two cycles
# Procedure: DVS is dynamic vapor sorption: The detection was carried out using SMS DVS Advantage at 25° C. with a humidity change of 50%-95%-0%-95%-50% in steps of 10% (the last step was 5%) (the specific range of humidity was subject to the corresponding pattern, and most methods were listed here), and the judgment standard was that dm/dt was not greater than 0.002%.
# Using Surface Measurement Systems advantage 2, starting at a humidity of 50% at 25° C., the humidity range was 0%-95%, the step was 10%, the judgment standard was that the mass change dM/dT of each gradient was less than 0.002%, the running time TMAX of each humidity gradient was 360 min, with two cycles, and the specific results are shown in Table 8.
# [3] = Stability of crystal form, influencing factor experiment; settings: for physical and chemical stability (conclusion): illumination, 40° C. and 60° C., humidity 75% and 92.5%
# Procedure: The crystal form A of hydrochloride, the crystal form A of methanesulfonate, and the crystal form α of the acetate were placed flat and left open. The stability of the samples was investigated under conditions of illumination (4500 Lux), high temperature (40° C., 60° C.), and high humidity (RH 75%, RH 92.5%), and the sampling investigation period was 30 days.
smiles,measurement,setting,value
CC(C)NCC(C(=O)N1C2CCC1CN(c1ncnc3c1C(C)(C)C(=O)N3)C2)c1ccc(Cl)cc1.Cl (stereo not drawn) [Crystal form A of hydrochloride],Crystal form,[1]; 25° C./60% RH,Untransformed
same,Purity % 1 month,[1]; 25° C./60% RH,99.3%
same,Purity % 2 month,[1]; 25° C./60% RH,99.3%
same,Purity % 3 month,[1]; 25° C./60% RH,99.2%
same,Purity % 6 month,[1]; 25° C./60% RH,99.3%
same,Purity % Onset,[1]; 25° C./60% RH,99.3%
same,physical and chemical stability (conclusion),[1],good physical and chemical stability
same,Crystal form,[1]; 40° C./75% RH,Untransformed
same,Purity % 1 month,[1]; 40° C./75% RH,99.3%
same,Purity % 2 month,[1]; 40° C./75% RH,99.3%
same,Purity % 3 month,[1]; 40° C./75% RH,99.2%
same,Purity % 6 month,[1]; 40° C./75% RH,99.3%
same,Purity % Onset,[1]; 40° C./75% RH,99.3%
same,mass change 0% RH-80.0% RH,[2],0.60%
same,mass change 0.0% RH-95.0% RH,[2],0.79%
same,Crystal form after hygroscopicity test,[2],Untransformed
same,Crystal form,"[3]; 40° C., 5 days, open",Untransformed
same,Purity %,"[3]; 40° C., 5 days, open",99.3%
same,Crystal form,"[3]; 40° C., 10 days, open",Untransformed
same,Purity %,"[3]; 40° C., 10 days, open",99.3%
same,Crystal form,"[3]; 40° C., 30 days, open",Untransformed
same,Purity %,"[3]; 40° C., 30 days, open",99.3%
same,Crystal form,"[3]; 60° C., 5 days, open",Untransformed
same,Purity %,"[3]; 60° C., 5 days, open",99.3%
same,Crystal form,"[3]; 60° C., 10 days, open",Untransformed
same,Purity %,"[3]; 60° C., 10 days, open",99.3%
same,Crystal form,"[3]; 60° C., 30 days, open",Untransformed
same,Purity %,"[3]; 60° C., 30 days, open",99.2%
same,Crystal form,"[3]; 75% RH, 5 days, open",Untransformed
same,Purity %,"[3]; 75% RH, 5 days, open",99.3%
same,Crystal form,"[3]; 75% RH, 10 days, open",Untransformed
same,Purity %,"[3]; 75% RH, 10 days, open",99.3%
same,Crystal form,"[3]; 75% RH, 30 days, open",Untransformed
same,Purity %,"[3]; 75% RH, 30 days, open",99.4%
same,Crystal form,"[3]; 92.5% RH, 5 days, open",Untransformed
same,Purity %,"[3]; 92.5% RH, 5 days, open",99.3%
same,Crystal form,"[3]; 92.5% RH, 10 days, open",Untransformed
same,Purity %,"[3]; 92.5% RH, 10 days, open",99.3%
same,Crystal form,"[3]; 92.5% RH, 30 days, open",Untransformed
same,Purity %,"[3]; 92.5% RH, 30 days, open",99.3%
same,Crystal form,"[3]; 4500 Lux, 5 days, open",Untransformed
same,Purity %,"[3]; 4500 Lux, 5 days, open",99.3%
same,Crystal form,"[3]; 4500 Lux, 10 days, open",Untransformed
same,Purity %,"[3]; 4500 Lux, 10 days, open",99.3%
same,Crystal form,"[3]; 4500 Lux, 30 days, open",Untransformed
same,Purity %,"[3]; 4500 Lux, 30 days, open",99.3%
same,Purity %,"[3]; Onset, 0 days",99.3%
same,physical and chemical stability (conclusion),[3]; 30 days,good physical and chemical stability
CC(C)NCC(C(=O)N1C2CCC1CN(c1ncnc3c1C(C)(C)C(=O)N3)C2)c1ccc(Cl)cc1.CS(=O)(=O)O (stereo not drawn) [Crystal form A of methanesulfonate],Crystal form,[1]; 25° C./60% RH,Untransformed
same,Purity % 1 month,[1]; 25° C./60% RH,99.9%
same,Purity % 2 month,[1]; 25° C./60% RH,99.8%
same,Purity % 3 month,[1]; 25° C./60% RH,99.8%
same,Purity % 6 month,[1]; 25° C./60% RH,99.9%
same,Purity % Onset,[1]; 25° C./60% RH,99.9%
same,physical and chemical stability (conclusion),[1],good physical and chemical stability
same,Crystal form,[1]; 40° C./75% RH,Untransformed
same,Purity % 1 month,[1]; 40° C./75% RH,99.9%
same,Purity % 2 month,[1]; 40° C./75% RH,99.8%
same,Purity % 3 month,[1]; 40° C./75% RH,99.8%
same,Purity % 6 month,[1]; 40° C./75% RH,99.8%
same,Purity % Onset,[1]; 40° C./75% RH,99.9%
same,mass change 0% RH-80.0% RH,[2],0.31%
same,mass change 0.0% RH-95.0% RH,[2],0.43%
same,Crystal form after hygroscopicity test,[2],Untransformed
same,Crystal form,"[3]; 40° C., 5 days, open",Untransformed
same,Purity %,"[3]; 40° C., 5 days, open",99.9%
same,Crystal form,"[3]; 40° C., 10 days, open",Untransformed
same,Purity %,"[3]; 40° C., 10 days, open",99.9%
same,Crystal form,"[3]; 40° C., 30 days, open",Untransformed
same,Purity %,"[3]; 40° C., 30 days, open",99.9%
same,Crystal form,"[3]; 60° C., 5 days, open",Untransformed
same,Purity %,"[3]; 60° C., 5 days, open",99.9%
same,Crystal form,"[3]; 60° C., 10 days, open",Untransformed
same,Purity %,"[3]; 60° C., 10 days, open",99.9%
same,Crystal form,"[3]; 60° C., 30 days, open",Untransformed
same,Purity %,"[3]; 60° C., 30 days, open",99.9%
same,Crystal form,"[3]; 75% RH, 5 days, open",Untransformed
same,Purity %,"[3]; 75% RH, 5 days, open",99.9%
same,Crystal form,"[3]; 75% RH, 10 days, open",Untransformed
same,Purity %,"[3]; 75% RH, 10 days, open",99.9%
same,Crystal form,"[3]; 75% RH, 30 days, open",Untransformed
same,Purity %,"[3]; 75% RH, 30 days, open",99.9%
same,Crystal form,"[3]; 92.5% RH, 5 days, open",Untransformed
same,Purity %,"[3]; 92.5% RH, 5 days, open",99.9%
same,Crystal form,"[3]; 92.5% RH, 10 days, open",Untransformed
same,Purity %,"[3]; 92.5% RH, 10 days, open",99.9%
same,Crystal form,"[3]; 92.5% RH, 30 days, open",Untransformed
same,Purity %,"[3]; 92.5% RH, 30 days, open",99.9%
same,Crystal form,"[3]; 4500 Lux, 5 days, open",Untransformed
same,Purity %,"[3]; 4500 Lux, 5 days, open",99.9%
same,Crystal form,"[3]; 4500 Lux, 10 days, open",Untransformed
same,Purity %,"[3]; 4500 Lux, 10 days, open",99.9%
same,Crystal form,"[3]; 4500 Lux, 30 days, open",Untransformed
same,Purity %,"[3]; 4500 Lux, 30 days, open",99.9%
same,Purity %,"[3]; Onset, 0 days",99.9%
same,physical and chemical stability (conclusion),[3]; 30 days,good physical and chemical stability
